According to US12528812B2 (Genentech, Inc., priority 2020, dated 2026):

What was measured:
[1] = molecular target: T1, recombinant human JAK1 kinase domain protein (Residues 854-1154) (Homo sapiens, UniProt P23458); experiment: JAK1 biochemical assay (LabChip mobility shift, Ki); conditions: read-out: Biochem JAK1 Ki
T1 construct: human JAK1 kinase domain protein (Residues 854-1154); purchased Proteros Biostructures GmbH (Martinsried, Germany); host or cells: insect cells

[2] = tested on: IL-13-stimulated STAT6 phosphorylation in human lung bronchial epithelial BEAS-2B cell line; experiment: P-STAT6 BEAS-2B + IL-13 cell assay; format: cell-based; conditions: Homo sapiens, BEAS-2B, BEAS2B cells, IL13 stimulation; read-out: Cellular JAK1 PSTAT6 BEAS2B + IL13
In short: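 BEAS-2B cells grown 48 h at 37 °C, pre-treated 1 h with compound (10-point 1:2 dilution curve), then stimulated 15 min with human recombinant IL-13 (250 ng/mL stock). Lysate P-STAT6 (Tyr641) read by MSD sandwich ELISA with total-STAT6 capture; IC50 from four-parameter logistic fit of control-normalised data.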

[3] = molecular target: Recombinant human JAK2 kinase domain protein (Residues 812-1132) (Homo sapiens, UniProt O60674); experiment: JAK2 biochemical assay (LabChip mobility shift, Ki); conditions: Biochem JAK2 Ki
Chain of Recombinant human JAK2 kinase domain protein (Residues 812-1132) (O60674 812-1132): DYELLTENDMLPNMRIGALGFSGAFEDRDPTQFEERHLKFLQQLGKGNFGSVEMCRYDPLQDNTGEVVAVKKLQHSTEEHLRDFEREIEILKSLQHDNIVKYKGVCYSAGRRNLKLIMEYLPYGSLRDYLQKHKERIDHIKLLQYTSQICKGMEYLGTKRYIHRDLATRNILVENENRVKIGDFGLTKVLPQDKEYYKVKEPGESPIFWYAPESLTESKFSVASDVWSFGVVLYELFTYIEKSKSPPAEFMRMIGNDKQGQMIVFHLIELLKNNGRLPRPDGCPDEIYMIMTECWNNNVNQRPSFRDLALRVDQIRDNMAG

T1 sequence (P23458 854-1154): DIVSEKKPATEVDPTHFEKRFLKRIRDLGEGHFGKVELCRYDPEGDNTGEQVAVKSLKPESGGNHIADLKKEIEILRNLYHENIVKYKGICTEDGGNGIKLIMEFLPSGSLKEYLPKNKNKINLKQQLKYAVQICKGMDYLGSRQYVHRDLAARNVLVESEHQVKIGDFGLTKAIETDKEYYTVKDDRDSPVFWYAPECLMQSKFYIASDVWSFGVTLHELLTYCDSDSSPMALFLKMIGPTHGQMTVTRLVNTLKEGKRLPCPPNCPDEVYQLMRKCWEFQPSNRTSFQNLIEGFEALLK

SMILES	Ki [1]	Ki [3]	IC50 [2]
Cn1cc(NC(=O)c2cnn3cccnc23)c(-c2cc(Oc3ccc(CN4CC[C@@H](CO)C4)cc3)ccc2OC(F)F)n1 (racemic) [Example 172, N-[3-[2-(difluoromethoxy)-5-[4-[[rac-(3R)-3-(hydroxymethyl)pyrrolidin-1-yl]methyl]phenoxy]phenyl]-l-methyl-pyrazol-4-yl]pyrazolo[1,5-a]pyrimidine-3-carboxamide]	6200 pM	1400 pM	150000 pM
Cc1c(Oc2ccc(OC(F)F)c(-c3nn(C)cc3NC(=O)c3cnn4cccnc34)c2)cnn1CCO [Example 155, N-[3-[2-(difluoromethoxy)-5-[1-(2-hydroxyethyl)-5-methyl-pyrazol-4-yl]oxy-phenyl]-1-methyl-pyrazol-4-yl]pyrazolo[1,5-a]pyrimidine-3-carboxamide]	310 pM	210 pM	25000 pM
CN(C)CCN(C)C(=O)c1cccc(Oc2ccc(OC(F)F)c(-c3nn(C)cc3NC(=O)c3cnn4cccnc34)c2)c1 [Example 206, N-[3-[2-(difluoromethoxy)-5-[3-[2-(dimethylamino)ethyl-methyl-carbamoyl]phenoxy]phenyl]-1-methyl-pyrazol-4-yl]pyrazolo[1,5-a]pyrimidine-3-carboxamide]	890 pM	880 pM	45000 pM
CN1CCC(O)(Cn2cc(Oc3ccc(OC(F)F)c(-c4nn(C)cc4NC(=O)c4cnn5cccnc45)c3)cn2)CC1 [Example 191, N-[3-[2-(difluoromethoxy)-5-[1-[(4-hydroxy-1-methyl-4-piperidyl)methyl]pyrazol-4-yl]oxy-phenyl]-1-methyl-pyrazol-4-yl]pyrazolo[1,5-a]pyrimidine-3-carboxamide]	540 pM	190 pM	110000 pM
CN1CC(n2cc(Oc3ccc(OC(F)F)c(-c4nn(C)cc4NC(=O)c4cnn5cccnc45)c3)cn2)C1 [Example 115, N-[3-[2-(difluoromethoxy)-5-[1-(1-methylazetidin-3-yl)pyrazol-4-yl]oxy-phenyl]-1-methyl-pyrazol-4-yl]pyrazolo[1,5-a]pyrimidine-3-carboxamide]	3000 pM	1600 pM	48000 pM
Cc1ccc(Oc2ccc(OC(F)F)c(-c3nn(CCN[C@H]4CCCOC4)cc3NC(=O)c3cnn4cccnc34)c2)cc1C(=O)N(C)C (racemic) [Example 83, N-[3-[2-(difluoromethoxy)-5-[3-(dimethylcarbamoyl)-4-methyl-phenoxy]phenyl]-1-[2-[[rac-(3R)-tetrahydropyran-3-yl]amino]ethyl]pyrazol-4-yl]pyrazolo[1,5-a]pyrimidine-3-carboxamide]	1700 pM	1000 pM	150000 pM
CN(C)C(=O)c1ccc(Oc2ccc(OC(F)F)c(-c3n[nH]cc3NC(=O)c3cnn4cccnc34)c2)cc1 [Example 130, N-[3-[2-(difluoromethoxy)-5-[4-(dimethylcarbamoyl)phenoxy]phenyl]-1-1H-pyrazol-4-yl]pyrazolo[1,5-a]pyrimidine-3-carboxamide]	460 pM	230 pM	24000 pM
Cn1cc(NC(=O)c2cnn3cccnc23)c(-c2cc(Oc3cnn(C4CNCC4O)c3)ccc2OC(F)F)n1 (stereo not drawn) [Example 176, N-[3-[2-(difluoromethoxy)-5-[1-(4-hydroxypyrrolidin-3-yl)pyrazol-4-yl]oxy-phenyl]-1-methyl-pyrazol-4-yl]pyrazolo[1,5-a]pyrimidine-3-carboxamide]	250 pM	210 pM	210000 pM
CN1CCC[C@H]1Cn1cc(NC(=O)c2cnn3cccnc23)c(-c2cc(Oc3ccccc3)ccc2OC(F)F)n1 (racemic) [Example 31, N-[3-[2-(difluoromethoxy)-5-phenoxy-phenyl]-1-[[rac-(2R)-1-methylpyrrolidin-2-yl]methyl]pyrazol-4-yl]pyrazolo[1,5-a]pyrimidine-3-carboxamide]	370 pM	860 pM	9200 pM
COC1(c2cccc(Oc3ccc(OC(F)F)c(-c4nn(C)cc4NC(=O)c4cnn5cccnc45)c3)c2)CN(C)C1 [Example 71, N-[3-[2-(difluoromethoxy)-5-[3-(3-methoxy-1-methyl-azetidin-3-yl)phenoxy]phenyl]-1-methyl-pyrazol-4-yl]pyrazolo[1,5-a]pyrimidine-3-carboxamide]	940 pM	880 pM	47000 pM
Cn1cc(NC(=O)c2cnn3cccnc23)c(-c2cc(Oc3cccc(CNC(CO)CO)c3)ccc2OC(F)F)n1 [Example 48, N-[3-[2-(difluoromethoxy)-5-[3-[[[2-hydroxy-1-(hydroxymethyl)ethyl]amino]methyl]phenoxy]phenyl]-1-methyl-pyrazol-4-yl]pyrazolo[1,5-a]pyrimidine-3-carboxamide]	760 pM	640 pM	86000 pM
COCCNCc1cccc(Oc2ccc(OC(F)F)c(-c3nn(C)cc3NC(=O)c3cnn4cccnc34)c2)c1 [Example 27, N-[3-[2-(difluoromethoxy)-5-[3-[(2-methoxyethylamino)methyl]phenoxy]phenyl]-1-methyl-pyrazol-4-yl]pyrazolo[1,5-a]pyrimidine-3-carboxamide]	730 pM	550 pM	20000 pM

The next lines start with results.

Ki [1]	Ki [3]	SMILES	IC50 [2]
1700 pM	570 pM	CN1CCc2cc(Oc3ccc(OC(F)F)c(-c4nn(C)cc4NC(=O)c4cnn5cccnc45)c3)ccc2C1 [Example 64, N-[3-[2-(difluoromethoxy)-5-[(2-methyl-3,4-dihydro-1H-isoquinolin-6-yl)oxy]phenyl]-1-methyl-pyrazol-4-yl]pyrazolo[1,5-a]pyrimidine-3-carboxamide]	59000 pM
1200 pM	720 pM	Cn1cc(NC(=O)c2cnn3cccnc23)c(-c2cc(Oc3cccc(CNC4COC4)c3)ccc2OC(F)F)n1 [Example 29, N-[3-[2-(difluoromethoxy)-5-[3-[(oxetan-3-ylamino)methyl]phenoxy]phenyl]-1-methyl-pyrazol-4-yl]pyrazolo[1,5-a]pyrimidine-3-carboxamide]	62000 pM
310 pM	280 pM	O=C(Nc1cn(C2COC2)nc1-c1cc(Oc2ccc3c(c2)CNCC3)ccc1OC(F)F)c1cnn2cccnc12 [Example 157, N-[3-[2-(difluoromethoxy)-5-(1,2,3,4-tetrahydroisoquinolin-7-yloxy)phenyl]-1-(oxetan-3-yl)pyrazol-4-yl]pyrazolo[1,5-a]pyrimidine-3-carboxamide]	28000 pM
520 pM	380 pM	Cn1cc(NC(=O)c2cnn3cccnc23)c(-c2cc(Oc3cccc(C4CNCCO4)c3)ccc2OC(F)F)n1 (racemic) [Example 38, N-[3-[2-(difluoromethoxy)-5-[3-[rac-(2R)-morpholin-2-yl]phenoxy]phenyl]-1-methyl-pyrazol-4-yl]pyrazolo[1,5-a]pyrimidine-3-carboxamide]	22000 pM
670 pM	390 pM	Cn1cc(NC(=O)c2cnn3cccnc23)c(-c2cc(Oc3cccc([C@@H]4COCCN4)c3)ccc2OC(F)F)n1 (stereo in doubt) [Example 32, N-[3-[2-(difluoromethoxy)-5-[3-[rac-(3R)-morpholin-3-yl]phenoxy]phenyl]-1-methyl-pyrazol-4-yl]pyrazolo[1,5-a]pyrimidine-3-carboxamide]	46000 pM
310 pM	220 pM	CN(C)C(=O)c1cc(Oc2ccc(OC(F)F)c(-c3nn(C)cc3NC(=O)c3cnn4cccnc34)c2)ccc1Cl [Example 78, N-[3-[5-[4-chloro-3-(dimethylcarbamoyl)phenoxy]-2-(difluoromethoxy)phenyl]-1-methyl-pyrazol-4-yl]pyrazolo[1,5-a]pyrimidine-3-carboxamide]	21000 pM
970 pM	770 pM	Cn1cc(NC(=O)c2cnn3cccnc23)c(-c2cc(Oc3ccnc(CN)c3)ccc2OC(F)F)n1 [Example 40, N-[3-[5-[[2-(aminomethyl)-4-pyridyl]oxy]-2-(difluoromethoxy)phenyl]-1-methyl-pyrazol-4-yl]pyrazolo[1,5-a]pyrimidine-3-carboxamide]	51000 pM
430 pM	420 pM	Cc1ccc(Oc2ccc(OC(F)F)c(-c3nn(C)cc3NC(=O)c3cnn4cccnc34)c2)cc1C(=O)N1CCNCC1 [Example 54, N-[3-[2-(difluoromethoxy)-5-[4-methyl-3-(piperazine-1-carbonyl)phenoxy]phenyl]-1-methyl-pyrazol-4-yl]pyrazolo[1,5-a]pyrimidine-3-carboxamide]	58000 pM
400 pM	460 pM	CN1CC(O)(c2cccc(Oc3ccc(OC(F)F)c(-c4nn(C5COC5)cc4NC(=O)c4cnn5cccnc45)c3)c2)C1 [Example 100, N-[3-[2-(difluoromethoxy)-5-[3-(3-hydroxy-1-methyl-azetidin-3-yl)phenoxy]phenyl]-1-(oxetan-3-yl)pyrazol-4-yl]pyrazolo[1,5-a]pyrimidine-3-carboxamide]	46000 pM
3900 pM	3700 pM	Cn1cc(NC(=O)c2cnn3cccnc23)c(-c2cc(Oc3cnn([C@H]4CCNC4)c3)ccc2OC(F)F)n1 (racemic) [Example 144, N-[3-[2-(difluoromethoxy)-5-[1-[rac-(3S)-pyrrolidin-3-yl]pyrazol-4-yl]oxy-phenyl]-1-methyl-pyrazol-4-yl]pyrazolo[1,5-a]pyrimidine-3-carboxamide]	160000 pM
